# Experimental data as given in paper PMC9814901, “One-pot synthesis of cyclic-aminotropiminium carboxylate derivatives with DNA binding and anticancer properties” (Communications Chemistry, 2022).
# What was measured:
# Assay type in all cases: cell-based
# HeLa cells [1] = assay: Cell cycle analysis by flow cytometry (PI); details: 18 h, 6e 18 μM, 6j 19 μM, 6n 19 μM
# Experimental: HeLa cells were cultured in 6 well plates with initial density 0.5 × 10^6 cells/well. These cells were treated with the IC50 concentration of 6n, 6j, and 6e compounds for 18 h. The cells were washed with 1X PBS and fixed with 70% ethanol. After washing, cells were resuspended in 500 μl PBS containing Propidium Iodide (PI) (500 μg/ml), RNase A (1X), and Triton X-100 (0.1%), and incubated for 30 min in the dark. Finally, the cells were analyzed by flow cytometry (BD Biosciences, CA, USA). The relative proportions of cells with DNA content G0–G1 (2n), S phase (>2n but <4n), and G2/M phase (4n) were acquired and analyzed using CellQuest Pro software (BD Biosciences).
# [2] = tested on: p38-p53 pathway and EMT markers in HeLa cells; assay: Western blot of p38-p53 pathway and EMT markers
# Experimental: In order to figure out the mechanism of apoptosis induction, we analyzed the effect of different concentrations of 6e (0 μM, 4 μM, 9 μM, 14 μM and 18 μM), 6j (0 μM, 5 μM, 10 μM, 15 μM and 19 μM), and 6n (0 μM, 5 μM, 10 μM, 15 μM and 19 μM) compounds on p38-p53 pathway.
# Cell lysates were prepared from HeLa treated with compounds 6e, 6j, and 6n in ice-cold RIPA buffer (Thermo Scientific, USA), and supplemented with protease and phosphatase inhibitor cocktail (Thermo Scientific, USA). Protein quantification of cell lysates was done using BCA reagent (Thermo Scientific). 20 µg of protein samples were separated on a 12% SDS-PAGE and subsequently transferred onto a PVDF membrane (Merck Millipore, USA). The blots were probed with specific antibodies for p38 (1:1000, #9212, Cell Signaling Technology, USA), phospho-p38 (1:1000, #9211; Cell Signaling technology), p53 (1:1000, #9282, Cell signalling technology), phospho-p53 (1:1000, #9284, Cell Signaling technology), snail (1:1000, #C15D3, Cell Signaling technology), slug (1:1000, #C19G7, Cell signalling technology) and GAPDH (1:5000, #ABM22C5, Abgenex, India) followed by incubation with HRP tagged anti-mouse IgG secondary antibody (Abgenex) for GAPDH and HRP tagged anti-rabbit IgG secondary antibody (Abgenex) for p38, phospho-p38, p53, phospho-p53, snail and slug. The chemiluminescence signal was detected in ChemiDoc XRS + (Bio-Rad) using SuperSignal™ West Femto reagent (Thermo Scientific).
# HeLa cells [3] = assay: Scratch (wound healing) assay in HeLa; details: 6e 18 μM, 6j 19.23 μM, 6n 18.92 μM, 0 h to 24 h
# Experimental: HeLa and HEK293 cells (0.25 × 10^6) were seeded into 12-well plates to grow in a monolayer for 24 h. A Scratch was made in the middle of the well using a sterile 200 µl pipette tip. The detached cells were removed by washing with 1x DPBS. The cell monolayers were treated for 18 h with 19 µM of 6n and 6j, and 18 µM of 6e with 10% DMEM. DMSO with 10% DMEM was used as a control. Images were collected at 0 h and 24 h under an inverted microscope (Ziess, Germany) at (4×) magnification. Cell migration was analyzed using ImageJ (NIH) software.
# HeLa cells [4] = assay: Confocal microscopy localization in HeLa cells; details: IC50 concentrations, 12-18 h
# Experimental: Herein we have shown that cATC fluorescent derivatives bind with ct-DNA in the non-intercalating mode. Thus we assumed that cATC derivatives might bind to the DNA, localizing within the nucleus and affecting the cell division. We studied the localization of fluorescent signals in HeLa cells using IC50 concentrations of compounds (6e, 6j, and 6n) at different time points using a confocal microscope. For all the compounds initially (at 12 h), the signal was present in the cytoplasm and the nucleus (Fig. 6A–C). With increasing time, the signal became more intense in the nucleus (Fig. 6A–D).
# HeLa cells (60,000) were grown onto a coverslip (Coverglass for cell Growth™, Fisherbrand, USA) in a 24-well plate. […] Thereafter, cells were fixed in 4% paraformaldehyde (Himedia), washed with ice-cold 1X PBS, permeabilized with 0.25% Triton X-100 (Sigma), and washed with 0.1% PBST. The cell was counter stained with 49,6-diamidino-2-phenylindole, dihydrochloride (DAPI, Invitrogen) and mounted using one drop of ProLong® Gold antifade reagent (Invitrogen) on a slide. Images were acquired by fluorescence microscope (Leica SP8 TCS) and analyzed using ImageJ (NIH).
# HEK293 cells = assay: MTS cell viability assay in HEK293; details: HEK293, 30 μM, 18 h
# Experimental: (§1) We investigated the effect of nine cATC derivatives (6b/6d/6e/6f/6i/6j/6k/6l/6n) on cell viability in cancer cell-line HeLa and transformed normal cell-line HEK293. We treated cells with the varying concentrations of the compounds ranging from 10 nM to 50 μM for 18 h (optimized).
# (§2) MTS assay (CellTiter 96® AQueous One Solution Cell Proliferation Assay (Promega, USA) was used to determine the cell viability. HeLa and HEK293 cells (20,000 cells in each well) were plated in 96 well plate and treated with 6e, 6j, and 6n varying concentrations of the compounds ranging from 10 nM to 50 μM for 18 h. The assay was carried out according to the manufacturer’s instructions. Finally, the plate was read in Varioskan™ LUX multimode microplate reader (Thermo Fisher Scientific) at 490 nm.
# (§3) Cell scavenging activity was calculated using the following formula:
# (§4) OD(490nm) (control) – OD(490nm) (Test)/OD(490nm) (control) × 100%
# (§5) Cell Viability of the cell was calculated using the following formula: […]
# [5] = MTS cell viability assay in HEK293; details: human, HEK293 cells, HEK293, 30 μM
# Experimental: as §1, §2, §3, §4, §5
smiles,measurement,setting,value
Cc1cccc(C2C(C(=O)[O-])N(CCc3ccccc3)c3ccccc[c+]3N2Cc2ccccc2)c1 (stereo not shown) [Compound 6e],cells in G2/M phase,HeLa cells [1]; control 24.36%,7.05%
same,cells in S phase,HeLa cells [1]; control 28.84%,34.61%
same,cells in G0/G1 phase,HeLa cells [1]; control 46.78%,58.33%
same,E-Cadherin expression,"[2]; dose-dependent, 0-19 µM",increased expression of E-Cadherin
same,"expression of EMT markers (N-Cadherin, Snail, Slug)","[2]; dose-dependent, 0-19 µM",decreased expression of EMT markers
same,phospho-P53 and phospho-P38 levels,"[2]; increasing concentration 0-18 μM (6e), 0-19 μM (6j, 6n)",gradual increase in phospho-P53 and phospho-P38 levels
same,effect on cell migration in scratch wound,HeLa cells [3],inhibited cell migration significantly
same,cellular localization of fluorescent signal,HeLa cells [4],penetrate the cell membrane and localize to the nucleus
same,Growth inhibition,HEK293 cells,61.1%
same,"viability at 18 h, 30 µM",[5],38.8%
